The record followed here is patent US6403554B2, “Polyunsaturated fatty acid derivatives and their use” (Ardenia Investments Ltd., priority 1998, dated 2002).

Assay [1] deals with hemagglutinating antibodies in serum. In words: Humoral immune response: titers of hemagglutinating antibodies in serum. The note with it: serum, female mice. Format: in vivo, C57B1/6 mice. Here is the method: (§1) 0.15 ml of compound 10 was administered intravenously to 6 mice females of CS7B1/6 line (weight 18-22 g) in doses of 45.5, 91 and 136.5 μg of compound 10 per capita for each testing group according to the dose. Simultaneously, a suspension of 5·10^7 sheep erythrocytes was injected intraperitoneally (0.2 ml per capita). Mice in the control group were injected intravenously with equal volume of saline. The effects of compound 10 on humoral immune response were analyzed both by counting the quantity of AFC in the spleen according to Cunningham (per 10^6 spleen cells and per spleen) and estimating the titers of hemagglutining antibodies in serum of the animals (Cunningham A. J., Nature, 1965, Vol.207, No 5001. P.1106-1107), while the titers of hemagglutinating antibodies were evaluated according to litterature (Evans J. et al., Cell, 1974; Vol 3., p.153-158, Feizi T., Menger E., Transfusion, 1970, Vol. 10, p.33-35,).
(§2) 0.15 ml of compound 11 was administered intravenously to 6 female mice of the C57B1/6 line (weight 18-22 g) in doses of 45.5, 91 and 136.5 μg of compound 11 per capita for each testing group according to the dose. Simultaneously, a suspension of 5·10^7 sheep erytrocytes was injected intraperitoneally (0.2 ml per capita). Mice in the control group were injected intravenously with an equal volume of saline. The effects of compound 11 on humoral immune response was analysed both by counting the quantity of AFC in the spleen according to Cunningham (per 10^6 spleen cells and per spleen) and estimating the titers of hemagglutining antibodies in serum of the animals.
as §2, with “12” for “11”, “erythrocytes” for “erytrocytes”, “analyzed” for “analysed”
as §2, with “compound 8” for “compound 11”, “sheep erythrocytes” for “sheep erytrocytes”, “Mice of” for “Mice in”, “response were analyzed” for “response was analysed”
as §2, with “compound 3” for “compound 11”, “Mice of” for “Mice in”, “with” for “with an”, “response were” for “response was”
0.15 ml of compound 4 was administered intravenously to 6 female mice of the C57B1/6 line (weight 18-22 g) in a doses of 45.5, 91 and 136.5 μg of compound 4 per capita for each testing group according to the dose. Simultaneously, a suspension of 5·10^7 sheep erythrocytes was injected intraperitoneally (0.2 ml per capita). […]

The subject of assay [2] is antibody-forming cells (AFC) in the spleen. Briefly: Influence of compound on humoral immune response to sheep erythrocytes, C57B1/6 female mice (AFC in spleen, hemagglutinins). Type of assay: in vivo. The settings on record: for Amount of antibody-forming cells per 10^6 spleen cells / Amount of antibody-forming cells per spleen / Effect on relative amount of AFC (per 10^6 spleen cells) / Effect on total AFC amount (per spleen) / Effect on hemagglutinin titers / Spleen index / Amount of hemagglutinins: i.v.; for Amount of antibody-forming cells per 10^6 spleen cells / Amount of antibody-forming cells per spleen / Effect on relative amount of AFC (per 10^6 spleen cells) / Effect on total AFC amount (per spleen): 5th day; for Amount of antibody-forming cells per 10^6 spleen cells / Amount of antibody-forming cells per spleen: M ± SEM; for Effect on relative amount of AFC (per 10^6 spleen cells) / Effect on total AFC amount (per spleen) / Effect on hemagglutinin titers: vs control; for Spleen index: with SRBC i.p.; for Amount of hemagglutinins: serum; for Immunogenic activity: 45.5 and 91 μg/mouse. Here is the method:
The increase was calculated as compared with the amount of cells in the animals immunised only with sheep erythrocytes.
as §1, §2
as §2, with “12” for “11”, “erythrocytes” for “erytrocytes”, “analyzed” for “analysed”
as §2, with “compound 8” for “compound 11”, “sheep erythrocytes” for “sheep erytrocytes”, “Mice of” for “Mice in”, “response were analyzed” for “response was analysed”
0.15 ml of compound 3 was administered intravenously to 6 female mice of the C57B1/6 line (weight 18-22 g) in doses of 45.5, 91 and 136.5 μg of compound 3 per capita for each testing group according to the dose. Simultaneously, a suspension of 5·10^7 sheep erytrocytes was injected intraperitoneally (0.2 ml per capita). Mice of the control group were injected intravenously with equal volume of saline.

As to `CC/C=C\C/C=C\C/C=C\C/C=C\C/C=C\CCCC(=O)NCCOP(=O)(O)O` [Compound 13, N-eicosapentaenoyl-o-phospho-2-aminoethanol], the Amount of hemagglutinins amounted to 9.7 ± 1.2 Log2 T in assay [1] (45.5 μg/mouse i.v.), 9.5 ± 1.2 Log2 T in assay [1] (91 μg/mouse i.v.) and 10.3 ± 0.9 Log2 T in assay [1] (136.5 μg/mouse i.v.).
In the same order, the values of `CC/C=C\C/C=C\C/C=C\CCCCCCCC(=O)N[C@H](C(=O)O)[C@@H](C)OP(=O)(O)O` [Compound 19, N-linolenoyl-o-phospho-L-threonine] are 8.1 ± 0.3 Log2 T, 8.3 ± 0.4 Log2 T and 8.5 ± 0.3 Log2 T.
As to `CC/C=C\C/C=C\C/C=C\C/C=C\C/C=C\C/C=C\CCC(=O)N[C@H](C(=O)O)[C@@H](C)OP(=O)(O)O` [Compound 11, N-(cis-4,7,10,13,16,19-docosahexaenoyl)-O-phospho-L-threonine], in assay [2] (45.5 μg/mouse), the “Amount of antibody-forming cells per 10^6 spleen cells” value is listed as 676.8±77.1 cells per 10^6 spleen cells, the “Amount of antibody-forming cells per spleen” value is recorded as 85.9±8.3 × 10^3, the “Effect on relative amount of AFC (per 10^6 spleen cells)” value is reported as −15.3 p > 0.05% and the “Effect on total AFC amount (per spleen)” value is −15.0 p > 0.05%. For the same compound, in assay [2] (45.5 μg/mouse), the “Effect on hemagglutinin titers” value was determined as 0% and the Spleen index was 6.2 ± 0.2 10^−3. Besides, in assay [2] (91 μg/mouse), the “Amount of antibody-forming cells per 10^6 spleen cells” value is 896.8±111.8 cells per 10^6 spleen cells, the “Amount of antibody-forming cells per spleen” value was 111.2±11.8 × 10^3, the “Effect on relative amount of AFC (per 10^6 spleen cells)” value is given as “+12.2 p > 0.05%” and the “Effect on total AFC amount (per spleen)” value was “+10.0 p > 0.05%”. Also, in assay [2] (91 μg/mouse), the “Effect on hemagglutinin titers” value is given as −3.6 p > 0.05% and the Spleen index was 6.9 ± 0.5 10^−3. Further, in assay [2] (136.5 μg/mouse), the immunostimulating action entry is reported as “marked immunostimulating action”, the “Amount of antibody-forming cells per 10^6 spleen cells” value is on record as 1336.5±59.0 cells per 10^6 spleen cells, the “Amount of antibody-forming cells per spleen” value is 182.5±7.8 × 10^3 and the Amount of hemagglutinins stood at 9.3±0.2 Log2 T. Besides, in assay [2] (136.5 μg/mouse), the Spleen index is recorded as 7.5 ± 0.4 10^−3. For the same compound, in assay [2], the Immunogenic activity result is “no immunogenic activity”.
As for `CC/C=C\C/C=C\C/C=C\CCCCCCCC(=O)NCCOP(=O)(O)O` [Compound 17, N-(cis-9,12,15-octadecatrienoyl)-O-phospho-2-aminoethanol], in assay [2] (45.5 μg/mouse), the “Amount of antibody-forming cells per 10^6 spleen cells” value is 457.3±40.7 cells per 10^6 spleen cells, the “Amount of antibody-forming cells per spleen” value is 51.1±4.4 × 10^3, the “Effect on relative amount of AFC (per 10^6 spleen cells)” value is on record as −3.0 p > 0.05% and the “Effect on total AFC amount (per spleen)” value is reported as −7.4 p > 0.05%. In assay [2] (45.5 μg/mouse), the Amount of hemagglutinins came to 7.6 ± 0.2 Log2 T and the Spleen index is given as 5.8 ± 10^−3. Besides, in assay [2] (91 μg/mouse), the “Amount of antibody-forming cells per 10^6 spleen cells” value is 523.8±45.3 cells per 10^6 spleen cells, the “Amount of antibody-forming cells per spleen” value is listed as 63.5±5.1 × 10^3, the “Effect on relative amount of AFC (per 10^6 spleen cells)” value is “+11.1 p > 0.05%” and the “Effect on total AFC amount (per spleen)” value is recorded as “+15.0 p > 0.05%”. Moreover, in assay [2] (91 μg/mouse), the Amount of hemagglutinins was found to be 7.8 ± 0.3 Log2 T, the “Effect on hemagglutinin titers” value is recorded as “+2.6 p > 0.05%” and the Spleen index is given as 5.7 ± 10^−3. Also, in assay [2] (136.5 μg/mouse), the immunostimulating action entry is reported as “marked immunostimulating action”, the “Amount of antibody-forming cells per 10^6 spleen cells” value is given as 619.6±38.9 cells per 10^6 spleen cells, the “Amount of antibody-forming cells per spleen” value was 71.6±4.7 × 10^3 and the Amount of hemagglutinins was found to be 7.8 ± 0.4 Log2 T. In assay [2] (136.5 μg/mouse), the “Effect on hemagglutinin titers” value is recorded as “+2.6 p > 0.05%” and the Spleen index is listed as 5.9 ± 10^−3. Moreover, in assay [2], the Immunogenic activity entry is given as “no immunogenic activity”.
For the compound `CC/C=C\C/C=C\C/C=C\C/C=C\C/C=C\C/C=C\CCC(=O)N[C@H](C(=O)O)[C@@H](C)OP(=O)(O)O` [Compound 11, N-docosahexaenoyl-o-phospho-L-threonine], the figures for the Amount of hemagglutinins in assay [1] (45.5 μg/mouse i.v.), in assay [1] (91 μg/mouse i.v.) and in assay [1] (136.5 μg/mouse i.v.) were 8.3 ± 0.3 Log2 T, 8.0 ± 0.5 Log2 T and 9.3 ± 0.2 Log2 T, respectively.
In the case of `CC/C=C\C/C=C\C/C=C\C/C=C\C/C=C\C/C=C\CCC(=O)N[C@@H](Cc1ccc(OP(=O)(O)O)cc1)C(=O)O` [Compound 12, N-(cis-4,7,10,13,16,19-docosahexaenoyl)-O-phospho-L-tyrosine], in assay [2] (45.5 μg/mouse), the “Amount of antibody-forming cells per 10^6 spleen cells” value is on record as 263.8±23.6 cells per 10^6 spleen cells, the “Amount of antibody-forming cells per spleen” value is given as 31.8±2.8 × 10^3, the “Effect on relative amount of AFC (per 10^6 spleen cells)” value is listed as −9.4 p >0.05% and the “Effect on total AFC amount (per spleen)” value is −9.1 p >0.05%. Besides, in assay [2] (45.5 μg/mouse), the “Effect on hemagglutinin titers” value is recorded as “+2.8 p >0.05%” and the Spleen index is recorded as 6.3 ± 0.3 10^−3. For the same compound, in assay [2] (91 μg/mouse), the “Amount of antibody-forming cells per 10^6 spleen cells” value is listed as 307.8±30.9 cells per 10^6 spleen cells, the “Amount of antibody-forming cells per spleen” value was 40.2±2.7 × 10^3, the “Effect on relative amount of AFC (per 10^6 spleen cells)” value was “+5.7 p > 0.05%” and the “Effect on total AFC amount (per spleen)” value is recorded as “+14.9 p > 0.05%”. Moreover, in assay [2] (91 μg/mouse), the “Effect on hemagglutinin titers” value is “+2.8 p > 0.05%” and the Spleen index is 5.9 ± 0.3 10^−3. In addition, in assay [2] (136.5 μg/mouse), the immunostimulating action result is “high immunostimulating action”, the “Amount of antibody-forming cells per 10^6 spleen cells” value was 682.6±33.3 cells per 10^6 spleen cells, the “Amount of antibody-forming cells per spleen” value is reported as 69.6±6.0 × 10^3 and the “Effect on hemagglutinin titers” value is “+7.7 p > 0.05%”. In addition, in assay [2] (136.5 μg/mouse), the Spleen index is 6.3 ± 0.4 10^−3. Further, the Immunogenic activity entry in assay [2] was “no immunogenic activity”.
